Measurements as given in patent US8808715B1, “Methods and compositions for modulating keratinocyte function” (Georgia Regents Research Institute, Inc, priority 2004, dated 2014).

Key:
[1] = test system: primary epidermal keratinocytes; experiment: Radiolabeled phosphatidylglycerol formation in intact keratinocytes; assay type: cell-based, mouse
Protocol: Primary epidermal keratinocytes were prepared from 1-3-day old neonatal ICR mice after trypsin flotation of the skin and mechanical separation of the epidermis from the dermis. The epidermal cells were released by scraping, collected by centrifugation and plated in 6-well dishes in a medium consisting of MEM containing 25 μM calcium, 2% dialyzed fetal bovine serum, 2 mM glutamine, 5 ng/mL EGF, ITS (6.25 μg/mL insulin+6.25 μg/mL transferrin+6.25 ng/mL selenious acid+5.35 μg/mL linoleic acid+1.25% bovine serum albumin), 100 U/mL penicillin, 100 μg/mL streptomycin and 0.25 μg/mL fungizone. After an overnight incubation, the cells were refed with serum-free keratinocyte medium (SFKM), in which 2% dialyzed fetal bovine serum was replaced with 90 μg/mL bovine pituitary extract. Cells were refed with fresh medium every 1-3 days.
For the PLD assay cultured primary keratinocytes were labeled for 20-24 hours with 2.5 μCi/ml [^3H] oleic acid. The cells were then exposed to vehicle or 100 nM PMA in the presence of 0.5% ethanol for 30 minutes. To measure the formation of radiolabeled phosphatidylglycerol, cells were treated for 24 hours with SFKM containing vehicle, 250 nM 1,25-dihydroxyvitamin D3 or 125 μM calcium and then labeled for an additional 30 minutes with 1-2.5 μCi/mL [^3H] or 0.4-0.5 μCi/mL [^14C]glycerol. For experiments investigating the extracellular calcium dependence of PG formation, cells were incubated for 24 hours in SFKM containing various calcium concentrations prior to the addition of 5 μCi/mL [^3H]glycerol for 30 minutes. In some cases, cells were stimulated with 25 μM calcium (control)—or 125 μM calcium-containing SFKM for 24 hours prior to the addition of [^14C]glycerol in the presence and absence of 1% ethanol. To measure phosphatidylglycerol formation in response to PMA, unlabeled cells were stimulated with 100 nM PMA in the presence of radiolabeled glycerol, as above. Reactions were terminated and the radiolabeled phosphatidylalcohol extracted, separated by thin-layer chromatography and quantified as described by Bollag (1998), referenced above.

PLD = PLD activity (radiolabeled phosphatidylethanol formation in [3H]oleate-prelabeled keratinocytes); assay type: cell-based, mouse; conditions: 100 nM PMA, 30 minutes, 0.5% ethanol; p<0.02
Protocol: Near-confluent keratinocytes were incubated without radiolabel (for phosphatidylglycerol production) or pre-labeled with 2.5 μCi/mL [^3H]oleate (for phosphatidylethanol formation) for 20-24 hours. The cells were then stimulated for 30 minutes with vehicle (0.05-0.1% DMSO; Con) or 100 nM PMA in the presence of [^3H]glycerol (for phosphatidylglycerol production), or in the presence of 0.5% ethanol (for phosphatidylethanol formation). Reactions were terminated by the addition of 0.2% SDS (±5 mM EDTA) and radiolabeled phosphatidylglycerol (PG), or phosphatidylethanol (PEt) was extracted, separated by thin-layer chromatography and quantified. Values are expressed as -fold over control and represent the means±SEM of three separate experiments performed in duplicate or triplicate; *p<0.02 versus the appropriate control by an unpaired Student's t-test.
For the PLD assay cultured primary keratinocytes were labeled for 20-24 hours with 2.5 μCi/ml [^3H] oleic acid. The cells were then exposed to vehicle or 100 nM PMA in the presence of 0.5% ethanol for 30 minutes. […] Reactions were terminated and the radiolabeled phosphatidylalcohol extracted, separated by thin-layer chromatography and quantified as described by Bollag (1998), referenced above.

primary keratinocytes = experiment: [3H]Glycerol uptake; assay type: cell-based, mouse; conditions: 30 minutes pretreatment with 100 nM PMA, then [3H]glycerol 5 minutes
Protocol: Confluent primary keratinocytes were incubated for 30, 60, 90, 120, 300 or 600 seconds with SFKM containing 20 mM HEPES (for additional pH buffering), 1 μCi/mL [^3H]glycerol and 0.1% DMSO (control) or 100 nM PMA. Reactions were terminated by washing three times with ice-cold phosphate-buffered saline lacking divalent cations. The cells were subsequently solubilized in 0.3 M NaOH and aliquots of this extract subjected to liquid scintillation counting. Counts obtained from duplicate samples at each time point were averaged and graphed, and a linear equation was determined for each condition. Correlation coefficients obtained were typically 0.99 or greater (mean correlation coefficient for control was 0.992±0.002 and for PMA, 0.994±0.001). Slopes obtained from multiple experiments were averaged and analyzed statistically for significant differences between conditions.
The linearity of glycerol uptake determined above allowed measurement of uptake at a single time point to determine the effects of other treatments on this process. Thus, confluent keratinocytes were preincubated for 30 minutes with 0.1% DMSO (control) or 100 nM PMA prior to measuring [^3H]glycerol uptake as above but at 5 minutes only. Similarly, near-confluent primary keratinocytes were incubated for 24 hours with SFKM containing various calcium concentrations prior to measurement of radiolabeled glycerol uptake for 5 minutes.
Near-confluent keratinocyte cultures were incubated for 24 hours in SFKM (25 μM calcium) or SFKM containing 125 μM calcium (125 μM Ca^2+-SFKM) and the glycerol uptake assay performed as previously described in Zheng & Bollag (2003). Briefly, cells were incubated with SFKM containing 20 mM HEPES (for additional pH buffering) and 1 μCi/mL [^3H] glycerol for 5 minutes, since it has previously been shown that this time point is in the linear range of [^3H]glycerol uptake (Zheng & Bollag (2003). Reactions were terminated by rapidly washing three times with ice-cold phosphate-buffered saline lacking divalent cations (PBS-). Cells were then solubilized in 0.3 M NaOH and [^3H]glycerol uptake quantified by liquid scintillation spectroscopy.

AQP3 null mutant mouse = conditions: studies of the AQP3 null mutant mouse; cited from earlier work
[2] = test system: rapidly dividing keratinocytes; experiment: Assay of DNA synthesis ([3H]thymidine incorporation) in rapidly dividing keratinocytes; assay type: cell-based; conditions: 24 hours; for effect on DNA synthesis in presence of 125 μM Ca2+: 125 μM Ca2+ medium; for effect on DNA synthesis ([3H]thymidine incorporation into DNA): control (25 μM Ca2+) medium
Protocol: Keratinocytes were prepared from ICR CD-I outbred mice in accordance with a protocol approved by the Institutional Animal Care and Use Committee. Briefly, the skins were harvested and incubated overnight in 0.25% trypsin at 4° C. The epidermis and dermis were separated and basal keratinocytes scraped from the underside of the epidermis. The cells were collected by centrifugation and incubated overnight in an atmosphere of 95% air/5% carbon dioxide at 37° C. in plating medium as described in Dodd M E, Ristich V L, Ray S, Lober R M, Bollag W B (2005) Regulation of protein kinase D during differentiation and proliferation of primary mouse keratinocytes. J Invest Dermatol 125:294-306, incorporated herein by reference. The plating medium was replaced with serum-free keratinocyte medium (SFKM) also as in Dodd, et al., and the cells were refed every 1-2 days with fresh medium until use.
[^3H]Thymidine incorporation into DNA was determined as a measure of DNA synthesis as previously described by Griner, et al., above. Near-confluent keratinocyte cultures were incubated for 24 hours in SFKM containing the indicated additions. PG was added in the form of liposomes prepared by bath sonication of dried PG in SFKM to make a stock solution of 2 mg/mL. [^3H]Thymidine at a final concentration of 1 μCi/mL was then added to the cells for an additional 1-hour incubation. Reactions were terminated by washing with PBS- and macromolecules precipitated with ice-cold 5% trichloroacetic acid. Cells were solubilized in 0.3 M NaOH and the radioactivity incorporated into DNA quantified by liquid scintillation spectroscopy.
[^3H]Thymidine incorporation was used as a measure of DNA synthesis and was performed as described in Example 2. Liposomes containing PG and functional derivatives thereof were prepared by bath sonication as described in Example 2, with the exception that different concentrations of material were employed.

Structure (SMILES)	correction of the epidermal phenotype of the knockout model (AQP3 null mutant mouse)	effect on DNA synthesis in presence of 125 μM Ca2+ [2]	effect on DNA synthesis ([3H]thymidine incorporation into DNA) [2]	other results
CCCCCCCCCCCCCC(=O)O[C@@H]1[C@@H](C)[C@@]2(O)[C@@H](C=C(CO)C[C@]3(O)C(=O)C(C)=C[C@@H]23)[C@@H]2C(C)(C)[C@]12OC(C)=O [PMA, Phorbol 12-myristate 13-acetate]	–	–	–	PG production ([1]; 100 nM PMA, 30 minutes with [3H]glycerol, p<0.01): decrease in PG production; PLD activity (radiolabeled phosphatidylethanol formation) (PLD): large increase in PLD activity; glycerol uptake (primary keratinocytes): decrease in glycerol uptake
OC[C@@H](O)[C@H](O)[C@@H](O)CO [xylitol]	not	no significant effect	no significant effect	–
OCCCO [1,3-propylene glycol]	not	–	–	–
CC(O)CO (centres unmarked) [1,2-propylene glycol]	not	dose dependent inhibition	dose dependent inhibition	–
C=C1/C(=C\C=C2/CCC[C@]3(C)[C@@H]([C@H](C)CCCC(C)(C)O)CC[C@@H]23)C[C@@H](O)C[C@@H]1O [1,25-dihydroxyvitamin D3]	–	–	–	radiolabeled PG formation relative to control cells ([1]; 24 hours pretreatment (250 nM 1,25-dihydroxyvitamin D3 or 125 μM calcium), then [3H]glycerol 30 minutes): did not increase radiolabeled PG formation; PG production ([1]; intermediate (10 nM) and high (250 nM) concentrations, 24 hours): significantly inhibited PG production
CCO [ethanol]	–	–	–	basal (control) PG production ([1]; 1% ethanol, 25 μM calcium control cells): without affecting basal (control) PG production; PG formation stimulated by preexposure to elevated extracellular calcium ([1]; 1% ethanol, cells pretreated with 125 μM calcium, [14C]glycerol): significantly inhibited PG formation
